ChEMBL document CHEMBL1143927, “Investigation of novel 7,8-disubstituted-5,10-dihydro-dibenzo[b,e][1,4]diazepin-11-ones as potent Chk1 inhibitors” (Bioorg Med Chem Lett, 2008)

How the values were obtained:
[1] = molecular target: T1, Serine/threonine-protein kinase Chk1 (Homo sapiens, UniProt O14757); test: Inhibition of recombinant Chk1
T1 sequence (O14757 whole entry): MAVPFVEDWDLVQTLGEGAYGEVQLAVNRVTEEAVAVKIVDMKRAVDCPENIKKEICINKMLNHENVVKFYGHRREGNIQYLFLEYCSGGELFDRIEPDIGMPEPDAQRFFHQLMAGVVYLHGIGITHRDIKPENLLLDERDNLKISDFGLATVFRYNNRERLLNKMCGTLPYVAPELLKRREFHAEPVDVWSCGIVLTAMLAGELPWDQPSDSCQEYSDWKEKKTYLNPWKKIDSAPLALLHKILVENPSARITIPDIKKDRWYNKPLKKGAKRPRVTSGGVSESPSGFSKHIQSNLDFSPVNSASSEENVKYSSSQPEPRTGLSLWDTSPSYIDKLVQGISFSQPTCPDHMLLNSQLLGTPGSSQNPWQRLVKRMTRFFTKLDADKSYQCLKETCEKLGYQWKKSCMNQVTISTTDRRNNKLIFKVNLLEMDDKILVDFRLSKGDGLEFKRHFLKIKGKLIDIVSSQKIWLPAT

[2] = molecular target: T1, Serine/threonine-protein kinase Chk1; test: Inhibition of human Chk1 in H1299 cells assessed as blockade of Cdc25A degradation; format: cell-based
[3] = Cell cycle arrest in human H1299 cells assessed as accumulation at G2/M phase by FACS; format: functional, cell-based; settings: NCI-H1299
HeLa = test: Antiproliferative activity against human HeLa cells after 48 hrs by MTS assay; format: functional, cell-based

Compound	IC50 [1]	EC50 [2]	EC50 [3]	EC50 (HeLa)
COc1cc2c(cc1CCCO)Nc1cc(-c3ccc([N+](=O)[O-])c(OC)c3)ccc1C(=O)N2	2.6 nM	1500 nM	> 10000 nM	> 59000 nM
COC(=O)CCc1cc2c(cc1OC)NC(=O)c1ccc(-c3ccc([N+](=O)[O-])c(OC)c3)cc1N2	22 nM	> 10000 nM	> 10000 nM	> 59000 nM
COc1cc2c(cc1OCCCN)Nc1cc(-c3ccc([N+](=O)[O-])c(OC)c3)ccc1C(=O)N2	0.98 nM	2600 nM	> 10000 nM	17300 nM
COc1cc2c(cc1OCCCCO)Nc1cc(-c3ccc([N+](=O)[O-])c(OC)c3)ccc1C(=O)N2	0.7 nM	2000 nM	> 10000 nM	> 59000 nM
COc1cc2c(cc1CCO)Nc1cc(-c3ccc([N+](=O)[O-])c(OC)c3)ccc1C(=O)N2	3.5 nM	900 nM	> 10000 nM	> 59000 nM
CCc1cc2c(cc1OC)Nc1cc(-c3ccc([N+](=O)[O-])c(OC)c3)ccc1C(=O)N2	9 nM	350 nM	> 10000 nM	4500 nM
COc1cc2c(cc1OCc1ccncc1)Nc1cc(-c3ccc([N+](=O)[O-])c(OC)c3)ccc1C(=O)N2	6.8 nM	50 nM	> 10000 nM	> 59000 nM
COc1cc2c(cc1OCc1csc(C)n1)Nc1cc(-c3ccc([N+](=O)[O-])c(OC)c3)ccc1C(=O)N2	4 nM	> 10000 nM	> 10000 nM	> 59000 nM
COc1cc2c(cc1OCCO)Nc1cc(-c3ccc([N+](=O)[O-])c(OC)c3)ccc1C(=O)N2	0.58 nM	3100 nM	> 10000 nM	> 59000 nM
COc1cc2c(cc1CCCO)NC(=O)c1ccc(-c3ccc([N+](=O)[O-])c(OC)c3)cc1N2	1.9 nM	220 nM	4300 nM	22000 nM
COC(=O)c1cc2c(cc1OC)Nc1cc(-c3ccc([N+](=O)[O-])c(OC)c3)ccc1C(=O)N2	11.2 nM	> 10000 nM	> 10000 nM	> 59000 nM
COc1cc2c(cc1OCC1CCCCO1)Nc1cc(-c3ccc([N+](=O)[O-])c(OC)c3)ccc1C(=O)N2 (stereo not drawn)	4.8 nM	200 nM	2400 nM	2000 nM
COc1cc2c(cc1CCC(=O)N(C)C)Nc1cc(-c3ccc([N+](=O)[O-])c(OC)c3)ccc1C(=O)N2	7.9 nM	50 nM	> 10000 nM	> 59000 nM
COc1cc(-c2ccc3c(c2)Nc2ccccc2NC3=O)ccc1[N+](=O)[O-]	–	–	–	47700 nM
COc1cc2c(cc1CC(C)(C)O)Nc1cc(-c3ccc([N+](=O)[O-])c(OC)c3)ccc1C(=O)N2	3.4 nM	40 nM	1800 nM	> 59000 nM
COc1cc2c(cc1OCc1ccccc1C(F)(F)F)Nc1cc(-c3ccc([N+](=O)[O-])c(OC)c3)ccc1C(=O)N2	1050 nM	–	> 10000 nM	> 59000 nM
COCCOCCOc1cc2c(cc1OC)NC(=O)c1ccc(-c3ccc([N+](=O)[O-])c(OC)c3)cc1N2	3.1 nM	3100 nM	> 10000 nM	52000 nM
COc1cc2c(cc1OC)Nc1cc(-c3ccc([N+](=O)[O-])c(OC)c3)ccc1C(=O)N2	0.6 nM	280 nM	> 10000 nM	> 59000 nM
COc1cc2c(cc1CCC(C)(C)O)Nc1cc(-c3ccc([N+](=O)[O-])c(OC)c3)ccc1C(=O)N2	4 nM	600 nM	> 10000 nM	> 59000 nM
COc1cc2c(cc1C(=O)N(C)C)NC(=O)c1ccc(-c3ccc([N+](=O)[O-])c(OC)c3)cc1N2	15.5 nM	3500 nM	> 10000 nM	45000 nM
COc1cc2c(cc1O)Nc1cc(-c3ccc([N+](=O)[O-])c(OC)c3)ccc1C(=O)N2	0.9 nM	70 nM	> 10000 nM	> 59000 nM
COc1cc2c(cc1OCCN1CCOCC1)Nc1cc(-c3ccc([N+](=O)[O-])c(OC)c3)ccc1C(=O)N2	8.1 nM	200 nM	2400 nM	2000 nM
COc1cc2c(cc1CCc1ccncc1)Nc1cc(-c3ccc([N+](=O)[O-])c(OC)c3)ccc1C(=O)N2	16.2 nM	2100 nM	> 10000 nM	9600 nM
